Experimental data published in ChEMBL document CHEMBL5120821, “Diterpenoids from Sauropus spatulifolius Leaves with Antimicrobial Activities” (2022).
Values after ≈ are worked out from the molar mass of the structure shown. Active and inactive are the calls of the source. The rule behind the calls is not given here.

Assays:
Bacillus subtilis = test: Antibacterial activity against Bacillus subtilis ATCC 6633 assessed as bacterial growth inhibition incubated for 18 hrs by microdilution method; assay type: functional
Micrococcus luteus = test: Antibacterial activity against Micrococcus luteus ATCC 9341 assessed as bacterial growth inhibition incubated for 18 hrs by microdilution method; assay type: functional
Streptococcus pneumoniae = test: Antibacterial activity against Streptococcus pneumoniae ATCC 49619 assessed as bacterial growth inhibition incubated for 18 hrs by microdilution method; assay type: functional
Escherichia coli = test: Antibacterial activity against Escherichia coli ATCC 25922 assessed as bacterial growth inhibition incubated for 18 hrs by microdilution method; assay type: functional
Staphylococcus aureus = test: Antibacterial activity against Staphylococcus aureus ATCC 25923 assessed as bacterial growth inhibition incubated for 18 hrs by microdilution method; assay type: functional
Shigella flexneri = test: Antibacterial activity against Shigella flexneris ATCC 12022 assessed as bacterial growth inhibition incubated for 18 hrs by microdilution method; assay type: functional
[1] = system: Staphylococcus epidermidis; test: Antibacterial activity against Staphylococcus epidermidis ATCC 12228 assessed as bacterial growth inhibition incubated for 18 hrs by microdilution method; assay type: functional
[2] = system: Vesicular stomatitis virus; test: Antiviral activity against GFP transfected VSV infected in MDCK cells assessed as inhibition of viral replication at MOI of 0.1 at 10 uM preincubated for 8 hrs followed by infected with virus incubated for 24 hrs by fluorescence microscope analysis; assay type: functional, organism-based; details: time 32.0 hrs
Influenza A virus = test: Antiviral activity against PR8-GFP transfected IAV infected in MDCK cells assessed as inhibition of viral replication at MOI of 0.01 at 10 uM preincubated for 8 hrs followed by infected with virus incubated for 24 hrs by fluorescence microscope analysis; assay type: functional, organism-based; details: time 32.0 hrs
[3] = system: Vesicular stomatitis virus; test: Antiviral activity against GFP transfected VSV infected in MDCK cells assessed as inhibition of viral replication at MOI of 0.1 at 10 uM preincubated for 8 hrs followed by infected with virus incubated for 24 hrs by flow cytometry (reference value: 51.3+/-1.1%); assay type: functional; set-up: scale not given: the % may be the effect or the level left; details: time 32 hrs

| Compound | MIC (Bacillus subtilis) | MIC (Micrococcus luteus) | MIC (Streptococcus pneumoniae) | MIC (Escherichia coli) | MIC (Staphylococcus aureus) | MIC (Shigella flexneri) | MIC [1] | Activity [2] | Activity (Influenza A virus) | Activity [3] |
| --- | --- | --- | --- | --- | --- | --- | --- | --- | --- | --- |
| C=CC1=C(C)C(=O)C=C2[C@]1(O)CC[C@@H]1C(C)(C)[C@H](O)[C@H](O)C[C@@]21C | > 64 µg/mL | > 64 µg/mL | > 64 µg/mL | > 64 µg/mL | > 64 µg/mL | > 64 µg/mL | > 64 µg/mL | – | – | – |
| C=Cc1ccc2c(c1)CC[C@@H]1C(C)(C)[C@H](O)[C@H](O)C[C@@]21C | > 64 µg/mL | > 64 µg/mL | > 64 µg/mL | > 64 µg/mL | > 64 µg/mL | > 64 µg/mL | > 64 µg/mL | – | – | – |
| Cc1cc2c(cc1O)[C@]1(C)C[C@@H](O)[C@@H](O)C(C)(C)C1=CC2=O | > 64 µg/mL | > 64 µg/mL | > 64 µg/mL | > 64 µg/mL | > 64 µg/mL | > 64 µg/mL | > 64 µg/mL | – | – | – |
| CC[C@H]1OC(=O)[C@H](C)[C@@H](O[C@H]2C[C@@](C)(OC)[C@@H](O)[C@H](C)O2)[C@H](C)[C@@H](O[C@@H]2O[C@H](C)C[C@H](N(C)C)[C@H]2O)[C@](C)(OC)C[C@@H](C)C(=O)[C@H](C)[C@@H](O)[C@]1(C)O [CLARITHROMYCIN] | < 0.125 µg/mL | < 0.125 µg/mL | < 0.125 µg/mL | 2 µg/mL (≈ 2.67 µM) | 0.25 µg/mL (≈ 0.334 µM) | < 0.125 µg/mL | 0.25 µg/mL (≈ 0.334 µM) | – | – | – |
| Cc1cc2c(cc1O)[C@]1(C)C[C@@H](O)[C@@H](O)C(C)(C)[C@H]1CC2 | 32 µg/mL (≈ 110 µM) | 32 µg/mL (≈ 110 µM) | 32 µg/mL (≈ 110 µM) | > 64 µg/mL | 32 µg/mL (≈ 110 µM) | 32 µg/mL (≈ 110 µM) | 32 µg/mL (≈ 110 µM) | – | – | – |
| Cc1cc2c(cc1O)[C@]1(C)C[C@@H](O)[C@@H](O)C(C)(C)[C@H]1CC2=O | > 64 µg/mL | > 64 µg/mL | > 64 µg/mL | > 64 µg/mL | > 64 µg/mL | > 64 µg/mL | > 64 µg/mL | – | – | – |
| Cc1ccc2c(c1)CC[C@@H]1C(C)(C)[C@H](O)[C@H](O)C[C@@]21C | > 64 µg/mL | > 64 µg/mL | > 64 µg/mL | > 64 µg/mL | > 64 µg/mL | > 64 µg/mL | > 64 µg/mL | – | – | – |
| CC1=CC2=CC[C@@H]3C(C)(C)[C@H](O)[C@H](O)C[C@@]3(C)[C@@H]2CC1=O | > 64 µg/mL | > 64 µg/mL | > 64 µg/mL | > 64 µg/mL | > 64 µg/mL | > 64 µg/mL | > 64 µg/mL | – | – | – |
| C=Cc1c(C)c(O)cc2c1CC[C@@H]1C(C)(C)[C@H](O)[C@H](O)C[C@@]21C | 12 µg/mL (≈ 37.9 µM) | 16 µg/mL (≈ 50.6 µM) | 16 µg/mL (≈ 50.6 µM) | > 64 µg/mL | 12 µg/mL (≈ 37.9 µM) | 12 µg/mL (≈ 37.9 µM) | 12 µg/mL (≈ 37.9 µM) | Active | Active | 3.4% |
